Experiments:
105K Tsc2- = test system: T1, 105K Tsc2-; test: cells; design: cell proliferation by crystal violet staining, absorbance 540 nm; conditions: 72 h
T1 construct: Tsc2-null

TTJ Tsc2- = test system: T2, TTJ Tsc2-; test: cells; design: cell proliferation by crystal violet staining, absorbance 540 nm; conditions: 72 h
T2 construct: Tsc2-null

634T Tsc1- = test system: T3, 634T Tsc1-; test: cells; design: cell proliferation by crystal violet staining, absorbance 540 nm; conditions: 72 h
T3 construct: Tsc1-null

105K Tsc2+ = test system: T4, 105K Tsc2+; test: cells; design: cell proliferation by crystal violet staining, absorbance 540 nm; conditions: 72 h
T4 construct: Tsc2 add-back

SNU886 TSC2+ = test system: T5, SNU886 TSC2+; test: cells; design: cell proliferation by crystal violet staining, absorbance 540 nm; conditions: SNU-886, 72 h
T5 construct: TSC2 add-back
Protocol: (§1) The effect of the compounds on cell proliferation was measured by crystal violet staining. Cells were plated in 96-well plates at a density of 500–2,000 cells (sextuples per condition). The next day, cells were treated with concentrations (0–100 nM) prepared by serial dilution. After 3 days of treatment, cells were fixed by 10% formalin for 10 minutes at room temperature. 0.05% crystal violet solution was added and incubated for 15 minutes at room temperature. Absorbance was read using Synergy HT (BioTek) at 540 nm. The inhibition curves and IC50 values were calculated by GraphPad Prism 9.0. TSC1-null HCV29 (BLCA cell line) and its TSC1–add-back derivative were treated with rapamycin, MLN0128, and bi-steric mTORC1 inhibitors.

HCV29 TSC1- = test system: T6, HCV29 TSC1-; test: cells; design: cell proliferation by crystal violet staining, absorbance 540 nm; conditions: HCV-29, 72 h
T6 construct: TSC1-null
Protocol: as §1

KTP-267-1B1 Tsc1- = test system: T7, KTP-267-1B1 Tsc1-; test: cells; design: cell proliferation by crystal violet staining, absorbance 540 nm; conditions: 72 h
T7 construct: Tsc1-null
Protocol: as §1

HCV29 TSC1+ = test system: T8, HCV29 TSC1+; test: cells; design: cell proliferation by crystal violet staining, absorbance 540 nm; conditions: HCV-29, 72 h
T8 construct: TSC1 add-back
Protocol: as §1

97-1 TSC1- = test system: T9, 97-1 TSC1-; test: cells; design: cell proliferation by crystal violet staining, absorbance 540 nm; conditions: 72 h
T9 construct: TSC1-null

855T Tsc1- = test system: T10, 855T Tsc1-; test: cells; design: cell proliferation by crystal violet staining, absorbance 540 nm; conditions: 72 h
T10 construct: Tsc1-null

TTJ Tsc2+ = test system: T11, TTJ Tsc2+; test: cells; design: cell proliferation by crystal violet staining, absorbance 540 nm; conditions: 72 h
T11 construct: Tsc2 add-back

705 TSC2+ = test system: T12, 705 TSC2+; test: cells; design: cell proliferation by crystal violet staining, absorbance 540 nm; conditions: 72 h
T12 construct: TSC2 add-back

705 Tsc2- = test system: T13, 705 Tsc2-; test: cells; design: cell proliferation by crystal violet staining, absorbance 540 nm; conditions: 72 h
T13 construct: Tsc2-null

KTP-269-3C4 Tsc1- = test system: T14, KTP-269-3C4 Tsc1-; test: cells; design: cell proliferation by crystal violet staining, absorbance 540 nm; conditions: 72 h
T14 construct: Tsc1-null

mTOR (mTORC1 and mTORC2) = target: T15, mTOR (mTORC1 and mTORC2) (Homo sapiens, UniProt P42345); test: immunoblot of mTORC1/mTORC2 substrate phosphorylation in cells ([…] h treatment); format: cell-based
T15 construct: endogenous mTOR in HCV29 TSC1-null cells

97-1 TSC1+ = test system: T16, 97-1 TSC1+; test: cells; design: cell proliferation by crystal violet staining, absorbance 540 nm; conditions: 72 h
T16 construct: TSC1 add-back

857T Tsc1+ = test system: T17, 857T Tsc1+; test: cells; design: cell proliferation by crystal violet staining, absorbance 540 nm; conditions: 72 h
T17 construct: Tsc1 wild-type

RT4 TSC1- = test system: T18, RT4 TSC1-; test: cells; design: cell proliferation by crystal violet staining, absorbance 540 nm; conditions: 72 h
T18 construct: TSC1-null

KTP-267-2B8 Tsc1- = test system: T19, KTP-267-2B8 Tsc1-; test: cells; design: cell proliferation by crystal violet staining, absorbance 540 nm; conditions: 72 h
T19 construct: Tsc1-null

## CC(C)n1nc(-c2ccc3oc(N)nc3c2)c2c(N)ncnc21 [MLN0128]
105K Tsc2-
  IC50: 41.7 nM
TTJ Tsc2-
  IC50: 63.1 nM
634T Tsc1-
  IC50: 60.3 nM
105K Tsc2+
  IC50: 79.4 nM
SNU886 TSC2+
  IC50: 44.7 nM
HCV29 TSC1-
  IC50: 31.6 nM
KTP-267-1B1 Tsc1-
  IC50: 44.7 nM
HCV29 TSC1+
  IC50: 35.5 nM
97-1 TSC1-
  IC50: 39.8 nM
855T Tsc1-
  IC50: 31.6 nM
TTJ Tsc2+
  IC50: 50.1 nM
705 TSC2+
  IC50: 50.1 nM
705 Tsc2-
  IC50: 50.1 nM
KTP-269-3C4 Tsc1-
  IC50: 26.9 nM
mTOR (mTORC1 and mTORC2)
  immunoblot of mTORC1/mTORC2 substrate phosphorylation in cells (4 h treatment): 10 to 30 nM
97-1 TSC1+
  IC50: 46.8 nM
857T Tsc1+
  IC50: 70.8 nM
RT4 TSC1-
  IC50: 63.1 nM
KTP-267-2B8 Tsc1-
  IC50: 28.2 nM

Source: paper PMC10617776, “Bi-steric mTORC1 inhibitors induce apoptotic cell death in tumor models with hyperactivated mTORC1” (The Journal of Clinical Investigation, 2023)
